Reference: patent publication US5451583A, “Substituted benzimidazoles and quinazolines as antihypertensives” (American Home Products Corporation, priority 1994, dated 1995)
Where a name gives a salt, the structure may show the parent alone.

Tested on: A II-infused rat
Assay: A II-infused rat model (ganglion-blocked), antihypertensive action
Assay type: in vivo
Conditions: 3 mg/kg id (intraduodenal), four hours post-administration
Experimental: In accordance with their ability to antagonize angiotensin II, the compounds of this invention show antihypertensive action in the following A II-infused rat model. Rats are anesthetized with Dial-Urethane (0.60 mL/kg, ip) and the trachea cannulated with PE 240. Either one femoral artery and both femoral veins or the carotid artery and the corresponding jugular vein are cannulated with PE 50. If the jugular vein is cannulated, two cannulas are placed in the one vein. The initial portion of the duodenum (just distal to the stomach) is cannulated with PE 50 via a small midline incision. Arterial pressure and heart rate are measured from the arterial cannula. Ten to 15 min are allowed following surgery for stabilization of arterial pressure. Ganglion blockade is then produced by intravenous administration of mecamylamine at 3 mg/kg (1 mL/kg of a 3 mg/mL solution). Ganglion blockade causes a fall in arterial pressure of about 50 mmHg. Mecamylamine is given every 90 min throughout the remainder of the experiment. An A II infusion is then begun into the other venous cannula at 0.25 μg/kg/min (at […]). The A II infusion returns arterial pressure to or slightly above the control level. Once arterial pressure has stabilized with the A II infusion, baseline values for mean arterial pressure (MAP) and heart rate are taken. […]

Question: For FC(F)(F)c1nc2c(c(NCc3ccc(-c4ccccc4-c4nn[nH]n4)nc3)n1)CCCC2 [Example 9], which “lowering of A II dependent blood pressure, average” value is on record?
Answer: 70%

Molecular target: angiotensin II receptor
Assay: rat adrenal receptor binding assay, displacement of radiolabeled (125I) angiotensin II
Conditions: rat adrenal cortex membranes; 1 nM 125I-A II; 35 min at 25° C.; pH 7.4; read-out: IC50, Inhibition of 125I Angiotensin II Binding
Experimental: The high affinity of the compounds for the angiotensin II receptor was established using a rat adrenal receptor binding assay, measuring the displacement of radiolabeled angiotensin II from the receptor, described as follows: Anesthetize male Sprague-Dawley rats (300-400 g body weight) with CO2 and sacrifice by cervical dislocation. Dissect adrenal glands and keep in ice-cold sucrose buffer (0.2M sucrose, 1 mM EDTA, 10 mM Trizma base, pH=7.2). Remove medulla by squashing. Mince the cortex, rinse and homogenize in a chilled ground glass tissue grinder with 15 mL sucrose buffer. Centrifuge at 3000×g for 10 min. (Sorvall RCSC centrifuge, SS34 rotor 6200 rpm). Decant supernatant through gauze. Centrifuge combined supernatant at 12000×g for 13 min. (Beckman ultracentrifuge, 80Ti rotor, 13000 rpm). Centrifuge the supernatant from the previous step at 102000×g for 60 min. (Beckman ultracentrifuge, 80Ti rotor, 38200 rpm). All steps are carried out at 4° C. Resuspend the pellet in 0.5 mL assay buffer (50 mM Tris HCI, 5 mM MgCl2, 0.2% BSA (protease-free), pH=7.4, 25° C.). Store on ice. Determine membrane protein by Lowry or Bradford assay with BSA as standard. The binding assay is performed in triplicate, in 12×75 mm plastic test tubes or in a 96-well plate (final volume of 0.25 mL). Add 140 μL assay buffer. Add 10 μL cold A II (to give final concentrations of 10^-10 -10^-7 M for standard curve and 10^-4 M for nonspecific binding), compounds (e.g., for final concentrations of 25 and 100 μM or 1 μM, 10 nM and 100 nM) in 50% DMSO, or 50% DMSO as a control. Add 50 μL membrane suspension (e.g., 10 μg protein). Preincubate for 30 min at 25° C. Add 50 μL ^125 I-A II which has been prepared as shown below (final concentration=1 nM). Incubate for 35 min at 25° C. Stop the incubation by adding 1 mL ice-cold buffer (assay buffer without BSA). Filter with GF/C filters on cell harvester (filters are presoaked in the assay buffer containing 1% polyethyleneimine). Rinse assay tubes 3× with 5 mL cold buffer (assay buffer without BSA). Cut and deposit the filter discs into test tubes and count on gamma counter for 1 min. Adjust the specific activity of ^125 I-A II purchased from New England Nuclear to 500 μCi/nmole by adding cold A II in water. Calculate the quantities of hot A II and the cold A II needed and make the dilution. Aliquot, seal tight, and store frozen until needed. Calculate the concentration of the total A II (hot+cold) after dilution. On the day of assay, thaw the frozen aliquot and adjust the volume to give a concentration of 5 pmole/mL (or 0.25 pmole/50 μL) with assay buffer (+protease-free BSA). For final concentration of 1 nM ^125 I-A II in the assay, add 50 μL (or 0.25 pmole) per test tube to a final volume of 250 μL. The results of these binding assays are reported as the inhibitory concentration of the test compound necessary to achieve fifty percent displacement of radiolabeled angiotensin II from its receptor (IC50), or the percent displacement of binding of A II at its receptor at 10^-8 M concentration of test compound (% I).

Question: With CCCc1nc2ccccc2n1CC1=C(c2ccccc2-c2nnn[nH]2)CCC1 [Example 1, 2-Propyl-1-[[2-[2-(1H-tetrazol-5-yl)phenyl]-1-cyclopentenyl]methyl]-1H-benzimidazole] as the compound, how does the IC50 read?
Answer: 200 µM

Question: With CCCc1nc2ccccc2n1CC1=C(c2cccc(-c3nnn[nH]3)c2)CCC1 [Example 2, 2-Propyl-1-[[2-[3-(1H-tetrazol-5-yl)phenyl]-1-cyclopentenyl]methyl]1H-benzimidazole] as the compound, how does the IC50 read?
Answer: 73 µM

Question: Which IC50 does the source give for CCCc1nc2ccccc2n1Cc1ccc(C2=C(C(=O)O)CCC2)cc1 [Example 3, 2-[4-[(2-Propyl-1H-benzimidazol-1-yl)methyl]phenyl]-1-cyclopentene-1-carboxylic Acid] here?
Answer: 20 µM

Question: CCCc1nc2ccccc2n1Cc1ccc(C2CCCC2C(=O)O)cc1 (centres unmarked) [Example 4, 2-[4-[(2-Propyl-1H-benzimidazol-1-yl)methyl]phenyl]cyclopentane-1-carboxylic Acid] was tested. Which IC50 did it give?
Answer: 25 µM

Question: How did the IC50 turn out when CCCc1nc2ccccc2n1CCN1CCN(c2ccccc2-c2nnn[nH]2)CC1 [Example 5, 2-Propyl-1-[2-[4-[2-(1H-tetrazol-5-yl)phenyl]-1-piperazinyl]ethyl]-1H-benzimidazole Potassium Salt] was run?
Answer: 43 µM

Question: CCCc1nc2ccccc2n1CCC1CCN(c2ccccc2-c2nnn[nH]2)CC1 [Example 6, 2-Propyl-1-[2-[1-[2-(1H-tetrazol-5-yl)phenyl]-4-piperidinyl]ethyl]-1H-benzimidazole] was tested. Which IC50 did it give?
Answer: 30 µM

Question: For CCCc1nc2ccccc2n1Cc1ccc(-c2ccccc2-c2nnn[nH]2)nc1 [Example 7, 2-Propyl-1-[[2-[2-(1H-tetrazol-5-yl)phenyl]-5-pyridinyl]methyl]-1H-benzimidazole], which IC50 is on record?
Answer: 24 µM

Question: With CCCc1nc2c(C)cccc2n1Cc1ccc(-c2ccccc2-c2nnn[nH]2)nc1 [Example 8, 4-Methyl-2-propyl-1-[[2-[2-(1H-tetrazol-5-yl)phenyl]-5-pyridinyl]methyl]-1H-benzimidazole] as the compound, how does the IC50 read?
Answer: 15 µM

Question: How did the IC50 turn out when FC(F)(F)c1nc2c(c(NCc3ccc(-c4ccccc4-c4nn[nH]n4)nc3)n1)CCCC2 [Example 9] was run?
Answer: 4.5 µM

Question: For CCCc1nc2ccccc2n1Cc1ccc(-c2ncccc2C(=O)O)cc1 [Example 10, 2-[4-[(2-Propyl-1H-benzimidazol-1-yl)methyl]phenyl]-3-pyridinecarboxylic Acid], which IC50 is on record?
Answer: 200 µM
